Data published in US12161738B2, “Deodorant compositions” (The Procter & Gamble Company, priority 2019, dated 2024).

Columns and labels:
[1] = test system: Staphylococcus epidermidis (clinical isolate); assay: Tier 1 Anaerobic MIC Assay; type: cell-based; details: raw material, BHI with 1% Tween 80, 37° C. overnight, O.D. 600
Method: (§1) Tier 1 Anaerobic MIC Assay
(§2) The data in Table 1 above was generated with the following test method. The purpose of this assay is to determine if a compound or formulation has an antimicrobial effect in vitro.
(§3) Procedure: (All procedures performed in anaerobic chamber except where noted)
(§4) Incubator at 37° C.; 20-200 ul 12 channel pipette; 5-50 ul 12 channel pipette; 1250 ul 8 channel Thermo Scientific Matrix pipette; 96 well plate shaker (located in incubator); Beckman Coulter deep well cap mat #267005; Beckman Coulter deep 96 well plates #267007; Falcon 96 well tissue culture plates #353072; Vortexer; Culture tubes/caps Disposable sterile gloves; Sterile petri dishes; Standard microbiological lab equipment (sterile pipettes, syringes, tips, loops, etc.); Glass bottles/flasks for media; Autoclave; Parafilm; Spectrophotometer.
(§5) BHI agar supplemented with 1% Tween 80
(§6) BHI media supplemented with 1% Tween 80
Staphylococcus epidermidis (clinical isolate)
(§7) Prior to testing streak organisms for isolation on BHI with 1% Tween 80 plates, wrap with parafilm and place in 37° C. incubator. When isolated colonies appear remove one representative colony from each plate and place each in 5 ml of BHI with 1% Tween 80 media. […]
(§8) In row A of a 96 deep well plate pipette 180 ul of sterile BHI with 1% Tween 80 as a negative growth control. […] The next day read the O.D. 600 on a plate reader. […]

[2] = test system: Corynebacterium mucofaciens (clinical isolate); assay: Tier 1 Anaerobic MIC Assay; type: cell-based; details: raw material, BHI with 1% Tween 80, 37° C. overnight, O.D. 600
Method: as §1, §2, §3, §4, §5, §6
Corynebacterium mucofaciens (clinical isolate)
as §7, §8

[3] = pH of various magnesium salts in a water solution; type: physicochemical; details: 12% in water
Method: The pH of magnesium carbonate, partially carbonated magnesium hydroxide, magnesium hydroxide and magnesium oxide were taken in a water solution. The pH values were recorded as follows in Table 4.

Q: With Cc1cc(CC(C)CC(C)(C)C)n(O)c(=O)c1.NCCO (stereo not drawn) [piroctone olamine] as the compound, how does the “microbial inhibition concentration (MIC), S. epidermidis” value [1] read?
A: Its value is 10 ppm.

Q: What about the “microbial inhibition concentration (MIC), C. mucofaciens” value [2] of the same compound?
A: Its value is under 5 ppm.

Q: With [Mg+2].[OH-].[OH-] [Magnesium Hydroxide] as the compound, how does the “pH in water 12% Solution” value [3] read?
A: The value was 10.

Q: Which “pH in water 12% Solution” value [3] does the source give for [O]=[Mg] [Magnesium Oxide] here?
A: The value was 10.8.

Q: And the “pH in water 12% Solution” value ([3]; listed as Magnesium oxide)?
A: The value was “highest pH observed”.

Q: Which “pH in water 12% Solution” value [3] does the source give for O=C([O-])[O-].[Mg+2] [Magnesium Carbonate] here?
A: The value was 9.6.
